Results from PMC12348105, “Pinene-Based Chiral Bipyridine Ligands Drive Potent Antibacterial Activity in Rhenium(I) Complexes” (Molecules, 2025).
Values after ≈ are worked out from the molar mass of the structure shown.

Experiments:
[1] = tested on: methicillin-sensitive S. aureus (MSSA); assay: MIC determination against methicillin-sensitive S. aureus (broth dilution, OD600); assay type: cell-based, Staphylococcus aureus; details: 24 h, 37 °C
Method: (§1) The antimicrobial activity of the rhenium tricarbonyl mononuclear complexes and their corresponding pinene-bipyridine ligands was determined against two S. aureus strain: methicillin-resistant S. aureus (MRSA 43300) and methicillin-sensitive S. aureus (MSSA 25923). These microorganisms are responsible for most nosocomial infections. […] Their mechanism of action is not yet fully understood, but we hypothesized that their positive charge allows them to interact more easily with biomolecules than neutral complexes, and/or that they more strongly interact with the negatively charged cellular membrane.
(§2) The antimicrobial activity of the complexes was evaluated against two strains: Staphylococcus aureus SA113 (methicillin-susceptible, MSSA) and S. aureus MecA R2954 (methicillin-resistant, MRSA). Briefly, each complex was initially dissolved in sterile DMSO at a concentration of 10 mM to create a stock solution. The solutions were diluted with Mueller–Hinton Broth (MHB) culture medium and added (serial dilution) to the wells of a 96-well plate at final concentrations ranging from 100 µM to 0.2 µM. Simultaneously, bacterial cultures grown the previous day in non-cation-adjusted MHB (1×) were used to prepare suspensions at 1 × 10^6 CFU/mL. An equal volume (50 µL) of these bacterial suspensions was added to each well containing the diluted complexes, resulting in final bacterial and compound concentrations of 5 × 10^5 CFU/mL and 100 µM to 0.2 µM, respectively. The plates were incubated at 37 °C for 24 h. Minimum inhibitory concentrations (MICs) were determined by measuring optical density at 600 nm (OD600). All experiments were performed in triplicate.

[2] = tested on: methicillin-resistant S. aureus (MRSA); assay: MIC determination against methicillin-resistant S. aureus (broth dilution, OD600); assay type: cell-based, Staphylococcus aureus; details: for MIC: 24 h, 37 °C
Method: as §1, §2

[3] = tested on: L929 mouse fibroblast cells; assay: Cell toxicity, MTT assay; assay type: cell-based; details: 24 h treatment
Method: The cytotoxicity of the complexes was evaluated using L929 mouse fibroblast cells cultured in DMEM supplemented with 10% (v/v) fetal bovine serum (FBS), 1% (v/v) penicillin/streptomycin, and L-glutamine. Cytotoxicity was assessed using the standard MTT assay. Briefly, cells were seeded into 96-well plates at a density of 3.75 × 10^4 cells/mL and incubated for 24 h. The complexes, initially dissolved in DMSO, were diluted with culture medium and added to the wells at final concentrations ranging from 100 µM to 0.2 µM. After 24 h of treatment, MTT solution (5 mg/mL in PBS) diluted in fresh medium was added to each well at 25% of the total volume and incubated for an additional 4 h. Formazan crystals formed by metabolically active cells were then solubilized in a 1:1 (v/v) DMSO:ethanol solution. Control wells included untreated cells (100% viability). Relative cell viability was calculated by comparing absorbance values to those of the untreated control.

| MIC ([1]; Staphylococcus aureus) | MIC ([2]; Staphylococcus aureus, MRSA) | Molecule | MIC [1] | MIC ([2]; MRSA) | IC50 [3] | other results |
| --- | --- | --- | --- | --- | --- | --- |
|  |  | [Re(CO)3(bpy)Br] | >50 µM | >50 µM |  | MIC higher than that of C2Br ([2]; MRSA, same core structure): ~10 fold |
| 3.13 µM (≈ 0.784 µg/mL) | 3.13 µM (≈ 0.784 µg/mL) | CC1(C)[C@H]2Cc3nc(-c4ccccn4)ccc3[C@@H]1C2 [5,6-pinbpy, (−)-5,6-pinene bipyridine] |  |  | 2.5 to 5 µM |  |
| 3.13 µM (≈ 0.784 µg/mL) | 3.13 µM (≈ 0.784 µg/mL) | CC1(C)[C@H]2Cc3cc(-c4ccccn4)ncc3[C@@H]1C2 [4,5-pinbpy, (−)-4,5-pinene bipyridine] |  |  | 2.5 to 5 µM |  |
|  |  | N#CC(C#N)=NNc1cccc(Cl)c1 [CCCP] |  |  |  | MIC of positive control ([2]; S. aureus, concentration stated as 1× MIC): 12.5 µM |
|  |  | [Re(CO)3(bpy)(Py)](OTf) | 100 µM | 100 µM |  |  |
